Reference: patent US5656206A, “Substituted naphthopyrans” (Transitions Optical, Inc., priority 1995, dated 1997)

Experiment: Photochromic response rates on an optical bench (polymer test squares)
Format: physicochemical
Settings: for ΔOD@ SATURATION: UV exposure continued for 20 minutes, test square; for ΔOD@ SATURATION / ΔOD/MIN SENSITIVITY: 75° F. (23.9° C.); for ΔOD/MIN SENSITIVITY: measured over first five (5) seconds of UV exposure, expressed per minute, BPA 2EO DMA / poly(ethyleneglycol) 600 dimethacrylate test square; for Bleach (T1/2): time for absorbance of activated form to reach one half the highest absorbance, room temperature (75° F., 23.9° C.), after removal of activating light; for LAMBDA MAX (VISIBLE): wavelength of maximum absorption of the activated (colored) form, in a diethylene glycol bis(allyl carbonate) composition
Procedure: Testing was done with the photochromic naphthopyrans of the Examples incorporated into polymeric samples by the following method. The quantity of naphthopyran calculated to yield a 1.5 times 10^-3 molal solution was added to a flask containing 50 grams of a monomer blend of 4 parts ethoxylated bisphenol A dimethacrylate (BPA 2EO DMA), 1 part poly(ethyleneglycol) 600 dimethacrylate, and 0.033 weight percent 2,2'-azobis(2-methyl propionitrile) (AIBN). The naphthopyran was dissolved into the monomer blend by stirring and gentle heating, if necessary. After a clear solution was obtained, it was poured into a flat sheet mold having the interior dimensions of 2.2 mm×6 inches (15.24 cm)×6 inches (15.24 cm). The mold was sealed and placed in a horizontal air flow, programmable oven set to increase the temperature from 40° C. to 95° C. over a 5 hour interval, hold the temperature at 95° C. for 3 hours and then lower it to 60° C. for at least 2 hours before the end of the curing cycle. After the mold was opened, the polymer sheet was cut using a diamond blade saw into 2 inch (5.1 centimeters) test squares.
The photochromic test squares prepared in Part A were tested for photochromic response rates on an optical bench. […] The bench was fitted with a 150 watt Xenon arc lamp, a remote controlled shutter, a copper sulfate bath acting as a heat sink for the arc lamp, a Schott WG-320 nm cut-off filter which removes short wavelength radiation; neutral density filter(s) and a sample holder in which the square to be tested was inserted. A collimated beam of light from a tungsten lamp was passed through the square at a small angle normal to the square. After passing through the square, the light from the tungsten lamp was directed through a photopic filter attached to a detector. The photopic filter passes wavelengths such that the detector mimics the response of the human eye. The output signals from the detector(s) were processed by a radiometer.
Change in optical density (ΔOD) was determined by inserting a test square in the bleached state into the sample holder, adjusting the transmittance scale to 100%, opening the shutter from the Xenon lamp to provide ultraviolet radiation to change the test square from the bleached state to an activated (i.e., darkened) state, measuring the transmittance in the activated state, and calculating the change in optical density according to the formula Δ OD=log(100/%Ta) where %Ta is the percent transmittance in the activated state and the logarithm is to the base 10.
The Δ OD/Min, which represents the sensitivity of the photochromic compound's response to UV light, was measured over the first five (5) seconds of UV exposure, then expressed on a per minute basis. The saturation optical density (OD) was taken under identical conditions as the Δ OD/Min, except UV exposure was continued for 20 minutes for the examples in Table 1. The lambda max reported in Table 1 is the wavelength in the visible spectrum at which the maximum absorption of the activated (colored) form of the photochromic compound in a diethylene glycol bis(allyl carbonate) composition occurs.

| Structure (SMILES) | ΔOD@ SATURATION | ΔOD/MIN SENSITIVITY | Bleach (T1/2) [min] | LAMBDA MAX (VISIBLE) | bleach rate, i.e., fade rate (in words) (conclusion from Table 1) |
| --- | --- | --- | --- | --- | --- |
| COc1ccc(C2(c3ccc(OC)cc3)C=Cc3c(COC(C)=O)c(-c4ccccc4)c4ccccc4c3O2)cc1 [Example 3, 2,2-bis(4-methoxyphenyl)-5-acetoxymethyl-6-phenyl-2H-naphtho[1,2-b]pyran] | 0.25 | 0.33 ΔOD/MIN | 1.82 | 508 | – |
| COc1ccc(C2(c3ccc(OC)cc3)C=Cc3c(CO)c(C)c4ccc(OC)cc4c3O2)cc1 [Example 1, 2,2-bis(4-methoxyphenyl)-5-hydroxymethyl-6-methyl-9-methoxy-2H-naphtho[1,2-b]pyran] | 0.42 | 0.38 ΔOD/MIN | 5.05 | 520 | – |
| COc1ccc(C2(c3ccc(OC)cc3)C=Cc3c(CO)c(-c4ccccc4)c4ccccc4c3O2)cc1 [Example 2, 2,2-bis(4-methoxyphenyl)-5-hydroxymethyl-6-phenyl-2H-naphtho[1,2-b]pyran] | 0.26 | 0.32 ΔOD/MIN | 2.48 | 506 | – |
| COc1ccc(C2(c3ccc4c(c3)CCO4)C=Cc3c(C(=O)N4CCCCC4)c(C)c4ccc(OC)cc4c3O2)cc1 (centres unmarked) [Example 4, 2-(4-methoxyphenyl)-2-(2,3-dihydrobenzofuran-5-yl)-5-piperidinocarbonyl-6-methyl-9-methoxy-2H-naphtho[1,2-b]pyran] | 0.65 | 0.34 ΔOD/MIN | > 13.3 | 535 | fades much slower |
